Results as given in US6613776B2, “Pyrazole compounds useful as protein kinase inhibitors” (Vertex Pharmaceuticals Incorporated, priority 2000, dated 2003).

Assays:
GSK-3β (AA 1-420) = target: T1, GSK-3β (AA 1-420) (Homo sapiens, UniProt P49841); assay: Ki determination for the inhibition of GSK-3 (coupled enzyme system); assay type: biochemical; settings: 20 μM ATP, 300 μM peptide, 20 nM GSK-3β, 30° C.
T1 construct: GSK-3β (AA 1-420)
Method: Compounds were screened for their ability to inhibit GSK-3β (AA 1-420) activity using a standard coupled enzyme system (Fox et al. (1998) Protein Sci. 7, 2249). Reactions were carried out in a solution containing 100 mM HEPES (pH 7.5), 10 mM MgCl2, 25 mM NaCl, 300 μM NADH, 1 mM DTT and 1.5% DMSO. Final substrate concentrations in the assay were 20 μM ATP (Sigma Chemicals, St Louis, Mo.) and 300 μM peptide (HSSPHQS(PO3H2)EDEEE, American Peptide, Sunnyvale, Calif.). Reactions were carried out at 30° C. and 20 nM GSK-3β. Final concentrations of the components of the coupled enzyme system were 2.5 mM phosphoenolpyruvate, 300 μM NADH, 30 μg/ml pyruvate kinase and 10 μg/ml lactate dehydrogenase.
An assay stock buffer solution was prepared containing all of the reagents listed above with the exception of ATP and the test compound of interest. The assay stock buffer solution (175 μl) was incubated in a 96 well plate with 5 μl of the test compound of interest at final concentrations spanning 0.002 μM to 30 μM at 30° C. for 10 min. Typically, a 12 point titration was conducted by preparing serial dilutions (from 10 mM compound stocks) with DMSO of the test compounds in daughter plates. […] Rates of reaction were obtained using a Molecular Devices Spectramax plate reader (Sunnyvale, Calif.) over 10 min at 30° C. The Ki values were determined from the rate data as a function of inhibitor concentration.

Aurora-2 = target: T2, Aurora-2 (Homo sapiens, UniProt O14965); assay: Ki determination for the inhibition of Aurora-2 (coupled enzyme assay); assay type: biochemical; settings: 70 nM Aurora-2, 30° C.
T2 sequence (O14965 1-403): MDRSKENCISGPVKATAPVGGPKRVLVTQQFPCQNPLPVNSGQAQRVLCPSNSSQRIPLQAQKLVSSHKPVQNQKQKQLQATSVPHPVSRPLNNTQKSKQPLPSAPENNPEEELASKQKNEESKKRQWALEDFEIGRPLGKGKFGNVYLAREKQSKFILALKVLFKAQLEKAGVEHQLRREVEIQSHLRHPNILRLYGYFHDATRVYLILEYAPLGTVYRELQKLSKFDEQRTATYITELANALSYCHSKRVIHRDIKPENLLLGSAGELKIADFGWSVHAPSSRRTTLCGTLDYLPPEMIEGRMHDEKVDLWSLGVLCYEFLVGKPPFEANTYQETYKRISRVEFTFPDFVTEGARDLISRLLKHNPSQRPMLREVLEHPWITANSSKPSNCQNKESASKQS
Method: Compounds were screened in the following manner for their ability to inhibit Aurora-2 using a standard coupled enzyme assay (Fox et al (1998) Protein Sci 7, 2249).
To an assay stock buffer solution containing 0.1M HEPES 7.5, 10 mM MgCl2, 1 mM DTT, 25 mM NaCl, 2.5 mM phosphoenolpyruvate, […], 30 mg/ml pyruvate kinase, 10 mg/ml lactate dehydrogenase, […], and 800 μM peptide (LRRASLG, American Peptide, Sunnyvale, Calif.) was added a DMSO solution of a compound of the present invention to a final concentration of 30 μM. The resulting mixture was incubated at 30° C. for 10 min. The reaction was initiated by the addition of 10 μL of Aurora-2 stock solution to give a final concentration of 70 nM in the assay. The rates of reaction were obtained by monitoring absorbance at 340 nm over a 5 minute read time at 30° C. using a BioRad Ultramark plate reader (Hercules, Calif.). The Ki values were determined from the rate data as a function of inhibitor concentration.

T1 sequence (P49841 whole entry, the tested form may be a part): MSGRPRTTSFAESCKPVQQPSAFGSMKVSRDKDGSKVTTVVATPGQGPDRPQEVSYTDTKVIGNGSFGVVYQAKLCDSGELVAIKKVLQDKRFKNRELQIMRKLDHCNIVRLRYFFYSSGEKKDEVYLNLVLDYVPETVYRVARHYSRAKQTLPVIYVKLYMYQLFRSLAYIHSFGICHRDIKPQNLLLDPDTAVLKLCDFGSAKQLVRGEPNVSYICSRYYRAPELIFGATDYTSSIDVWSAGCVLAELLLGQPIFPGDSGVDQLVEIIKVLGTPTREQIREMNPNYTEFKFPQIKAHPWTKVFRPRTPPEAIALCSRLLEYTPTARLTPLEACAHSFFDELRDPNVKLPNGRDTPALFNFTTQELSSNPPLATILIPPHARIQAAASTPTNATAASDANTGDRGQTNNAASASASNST

COC(=O)c1cc(Nc2ccnc(N3CCCCC3)n2)n[nH]1 [IV-8]
Ki (GSK-3β (AA 1-420)): 100 to 1000 nM

Cc1cc(Nc2nc(N3CCC(C)CC3)nc3nc[nH]c23)n[nH]1 [IV-33, [2-(4-Methylpiperidin-1-yl)-purin-4-yl]-(S-methyl-2H-pyrazol-3-yl)-amine]
Ki (GSK-3β (AA 1-420)): 100 to 1000 nM
Ki (Aurora-2): 100 to 1000 nM
melting point: > 300 °C
